Consider 20 molecules from patent publication US9238034B2, “FN14 antagonists and therapeutic uses thereof” (THE TRANSLATIONAL GENOMICS RESEARCH INSTITUTE, priority 2013, dated 2016).

Structures are written as SMILES. Like-named read-outs stand apart in the source and are kept apart here. Bounds are passed on as bounds.

This experiment concerns the target T1, Fn14-TWEAK binding (Homo sapiens, UniProt Q9NP84).
T1 construct: the human Fc fragment-tagged Fn14 extracellular domain (R&D Systems) was captured; purchased R&D Systems (Fn14-Fc); Peprotech (recombinant TWEAK)
T1 sequence (Q9NP84 28-80 limits assumed): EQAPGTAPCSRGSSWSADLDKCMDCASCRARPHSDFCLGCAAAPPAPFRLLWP
In words: Double sandwich ELISA small molecule screening of TWEAK binding to captured Fn14-Fc. Here is the method:
Double Sandwich ELISA. sTWEAK and sTWEAK variant proteins were synthesized as described above. The expression level of each IVTT synthesized sTWEAK protein was analyzed by western blot analysis and used in approximately equal amounts in the ELISA. To assay the binding of wild type sTWEAK and sTWEAK variants to Fn14, the human Fc fragment-tagged Fn14 extracellular domain (R&D Systems) was captured in an Immuno 96-microwell white plate by adding 100 μL of 0.025 μg/mL Fn14-Fc to wells coated with goat anti-human Fcγ fragment specific monoclonal antibody. After capture, the wells were washed 3× with Dulbecco's Phosphate Buffered Saline (DPBS) containing 0.05% Tween-20. Unbound sites were blocked by addition of 100 μL of blocking solution containing 0.05% Tween-20, 1% BSA, and 3% normal goat serum (NGS) in DPBS for 1 hr at room temperature. 0.01 μL of sTWEAK or sTWEAK variant made with the human IVTT kit or 2 μL of sTWEAK or sTWEAK variant made with the rabbit IVTT kit was diluted in 100 μL of sample diluent (DPBS+1% BSA+0.005% Tween-20) and then added to the wells for 2 hr followed by addition of 100 μL of 50 ng/mL biotinylated TWEAK detection antibody (R&D Systems) in sample diluent. Following incubation for additional 2 hr at room temperature, wells were washed 3× with DPBS containing 0.05% Tween-20 and bound biotinylated TWEAK antibody was detected by incubation with an HRP-conjugated streptavidin. The total luminescent signal was obtained using Femto ELISA kit (Pierce Biochemical) and compared to the standard curve signal obtained from the binding of 0-4000 pg/mL recombinant TWEAK (Peprotech inc) to Fn14-Fc. Using 5-parameter logistic curve fitting for standard curve analysis (Sigmaplot 11.0, SyStat Software Inc.), binding of sTWEAK or TWEAK variant to Fn14-Fc was determined. The data represents that observed for at least four replicate assays.
The small molecule screening was performed using the ELISA assay described above with minor modifications. Briefly, after capturing Fn14-Fc in the microwell plate, 80 μl of drug solution in sample diluent was added to desired wells and incubated for 2 hrs at room temperature. Subsequently, 20 μL of 2500 pg/mL (5×) TWEAK was added to each well to achieve final TWEAK concentration of 500 pg/mL and incubated for additional 2 hr at room temperature. Bound TWEAK was detected as described in the protocol above. All small molecule inhibitors were screened at 25 μM final concentration (final DMSO concentration of 0.125%) in duplicate. Cyclohexamide, a non-specific small molecule, at 25 μM concentration was used as negative control. The anti-Fn14 antibody ITEM-4, added at 2.5 μg/mL, was used as a positive control for complete blockade of TWEAK binding. Reduction in TWEAK binding due to compound addition or controls was calculated by using standard curve (Separate standard curve was obtained for every screening plate).

[1] abbreviates: Table 3, first round of screening, 25 μM, average of duplicate, read-out: % Reduction in TWEAK Binding, Average.
Setting [2] is: Table 3, first round of screening, 25 μM, replicate 1, read-out: % Reduction in TWEAK Binding, Data 1.
[3] abbreviates: Table 3, first round of screening, 25 μM, replicate 2, read-out: % Reduction in TWEAK Binding, Data 2.
The mark [4] stands for this setting: Table 5, 25 μM, average of duplicate, read-out: % Reduction in TWEAK Binding, Average.
The mark [5] stands for this setting: Table 5, 25 μM, replicate 1, read-out: % Reduction in TWEAK Binding, Data 1.
The mark [6] stands for this setting: Table 5, 25 μM, replicate 2, read-out: % Reduction in TWEAK Binding, Data 2.
Setting [7] is: Table 4, second screening iteration, 25 μM, average of duplicate, read-out: % Reduction in TWEAK Binding, Average.
The mark [8] stands for this setting: Table 4, second screening iteration, 25 μM, replicate 1, read-out: % Reduction in TWEAK Binding, Data 1.
Where [9] appears, read: Table 4, second screening iteration, 25 μM, replicate 2, read-out: % Reduction in TWEAK Binding, Data 2.
The mark [10] stands for this setting: first round of screening, 25 μM, read-out: average inhibition in TWEAK-Fn14 binding.
[11] abbreviates: first round of screening, 25 μM, read-out: single point activities / individual data points, inhibition of the Fn14-TWEAK interaction.

With `CCC(=O)Nc1ccccc1-c1nnc(SC(C)C(=O)Nc2cccc(Cl)c2C)[nH]c1=O` (stereo not drawn) [Compound F151-0419], the inhibition at 25 µM reads like this: under setting [1], 10.9%; under setting [2], 8.79%; under setting [3], 13%; under setting [4], 10.9%; under setting [5], 8.79%; under setting [6], 13%.
For the molecule `O=C(c1cn(-c2cccc(Cl)c2)nn1)N1CCCC1` [Compound L524-0322], the inhibition at 25 µM is, setting by setting: under setting [7], 11.6%; under setting [8], 17%; under setting [9], 6.27%; under setting [4], 11.6%; under setting [5], 17%; under setting [6], 6.27%.
Consider `COC(=O)[C@H]1Cc2c([nH]c3ccccc23)CN1` [Compound D715-0140], for which the inhibition at 25 µM under setting [1] is 11.7%; the inhibition at 25 µM under setting [2] was 9.77%; the inhibition at 25 µM under setting [3] was 13.6%; the inhibition at 25 µM under setting [4] came to 11.7%; the inhibition at 25 µM under setting [5] was 9.77%; the inhibition at 25 µM under setting [6] worked out at 13.6%.
As to `O=C(CSc1nnc(-c2ccccc2)c(-c2ccccc2)n1)Nc1cccc(Cl)c1` [Compound K784-2268], the inhibition at 25 µM by setting is: under setting [7], 17%; under setting [8], 24%; under setting [9], 10.1%; under setting [4], 17%; under setting [5], 24%; under setting [6], 10.1%.
Consider `COc1cccc(NC(=O)CSc2nnc(-c3ccccc3)c(-c3ccccc3)n2)c1` [Compound K784-2273], for which the inhibition at 25 µM runs as follows: under setting [7], 10.5%; under setting [8], 10.5%; under setting [4], 10.5%; under setting [5], 10.5%.
For `O=C(NCc1ccccc1)C(=O)NCc1n[nH]c(=O)c2ccccc12` [Compound F044-0075], the inhibition at 25 µM under setting [1] turned out to be 13%; the inhibition at 25 µM under setting [2] worked out at 13.2%; the inhibition at 25 µM under setting [3] came out at 12.8%; the inhibition at 25 µM under setting [4] was 13%; the inhibition at 25 µM under setting [5] came out at 13.2%; the inhibition at 25 µM under setting [6] is 12.8%. Under setting [10], the inhibition at 25 µM is under 15%.
With `O=C1CN(C(=O)CSc2ccccc2)c2ccccc2N1` [Compound D479-0271], the inhibition at 25 µM reads like this: under setting [7], 19.7%; under setting [8], 20.9%; under setting [9], 18.5%; under setting [4], 19.7%; under setting [5], 20.9%; under setting [6], 18.5%.
Regarding `COc1ccccc1NC(=O)Cc1csc(NC(=O)Nc2ccccc2)n1` [Compound F042-0072], the inhibition at 25 µM reads like this: under setting [1], 10.4%; under setting [2], 13%; under setting [3], 7.81%; under setting [4], 10.4%; under setting [5], 13%; under setting [6], 7.81%.
In the case of `Cc1cc(C2CCCN2C(=O)c2cc(-c3ccc4c(c3)OCO4)on2)on1` (stereo not drawn) [Compound J004-1091], the inhibition at 25 µM came out at 15% under setting [1]; 23.1% under setting [2]; 6.98% under setting [3]; 15% under setting [4]; 23.1% under setting [5]; 6.98% under setting [6]. Under setting [10], the inhibition at 25 µM was over 15%.
Regarding `CCC(=O)Nc1ccccc1-c1ccccc1NC(=O)CC` [Compound 4478-7056], the inhibition at 25 µM by setting is: under setting [7], 16.5%; under setting [8], 15%; under setting [9], 18%; under setting [4], 16.5%; under setting [5], 15%; under setting [6], 18%.
As to `Nc1ccccc1SCC(=O)Nc1cccc2nsnc12` [Compound 8415-09495], the inhibition at 25 µM under setting [7] amounted to 19.5%; the inhibition at 25 µM under setting [8] worked out at 17.8%; the inhibition at 25 µM under setting [9] worked out at 21.2%; the inhibition at 25 µM under setting [4] worked out at 19.5%; the inhibition at 25 µM under setting [5] is 17.8%; the inhibition at 25 µM under setting [6] was 21.2%.
Regarding `CC(C)NC(=O)C(=O)NCc1n[nH]c(=O)c2ccccc12` [Compound F044-0043], the inhibition at 25 µM by setting is: under setting [1], 13.7%; under setting [2], 12.8%; under setting [3], 14.7%; under setting [4], 13.7%; under setting [5], 12.8%; under setting [6], 14.7%. Moreover, the inhibition at 25 µM under setting [10] was under 15%.
Turning to `O=C(NCc1n[nH]c(=O)c2ccccc12)C(=O)N1CCCCCC1` [Compound F044-0011], the inhibition at 25 µM reads like this: under setting [7], 22%; under setting [8], 20.8%; under setting [9], 23.2%; under setting [4], 22%; under setting [5], 20.8%; under setting [6], 23.2%.
`O=C(NCc1ccncc1)C1CCCN(c2nc3c(-c4ccccc4)csc3c(=O)[nH]2)C1` (stereo not drawn): the inhibition at 25 µM runs as follows: under setting [4], 14.3%; under setting [5], 13.4%; under setting [6], 15.2%.
On to `CCn1c(=O)c(S(=O)(=O)c2ccccc2)c(O)c2ccccc21` [Compound C200-7197], for which the inhibition at 25 µM is, setting by setting: under setting [7], 26.3%; under setting [8], 27.4%; under setting [9], 25.1%; under setting [4], 26.3%; under setting [5], 27.4%; under setting [6], 25.1%.
On to `O=C(NC1CC1)c1cn(-c2cccc(Cl)c2)nn1` [Compound L524-0361], for which the inhibition at 25 µM runs as follows: under setting [7], 15.7%; under setting [8], 14.7%; under setting [9], 16.7%; under setting [4], 15.7%; under setting [5], 14.7%; under setting [6], 16.7%.
Turning to `O=C(CSc1nc2c(cnn2-c2ccccc2)c(=O)[nH]1)NCc1ccc(F)cc1` [Compound G873-0031], the inhibition at 25 µM came out at 14.2% under setting [1]; 20.3% under setting [2]; 8.06% under setting [3]; 14.2% under setting [4]; 20.3% under setting [5]; 8.06% under setting [6]. The inhibition at 25 µM under setting [11] was over 15%.
Regarding `O=C(Cc1c[nH]c2ccccc12)Nc1ccc2oc(=O)ccc2c1` [Compound D715-0817], the inhibition at 25 µM runs as follows: under setting [1], 10.3%; under setting [2], 9.04%; under setting [3], 11.5%; under setting [4], 10.3%; under setting [5], 9.04%; under setting [6], 11.5%.
For `COc1ccc(C2N[C@H](C(=O)O)Cc3c2[nH]c2ccccc32)cc1O` (stereo partly drawn) [Compound D715-0114], the inhibition at 25 µM runs as follows: under setting [1], 10.3%; under setting [2], 0.98%; under setting [3], 19.6%; under setting [4], 10.3%; under setting [5], 0.98%; under setting [6], 19.6%. Moreover, the inhibition at 25 µM under setting [11] was over 15%.
Regarding `O=C(c1csc(S(=O)(=O)NCc2ccccn2)c1)N1CCCCCC1`, the inhibition at 25 µM is, setting by setting: under setting [4], 12%; under setting [5], 15.3%; under setting [6], 8.76%.
